Usually inhibition stands for the drop in the measured response relative to a control, in per cent.

3 molecules from ChEMBL document CHEMBL4118021, “Studies of TAK1-centered polypharmacology with novel covalent TAK1 inhibitors” (Bioorg Med Chem, 2017) can be followed below.

Calls of active or inactive are those of the source. The rule behind the calls is not given here.

Holding throughout (type): cell-based
Test [1] addresses Macrophage-stimulating protein receptor (Homo sapiens) (UniProt Q04912). As to the kind of experiment: Inhibition of RON in human SKCO1 cells at 1 uM after 4 hrs using biotin labeled IQCAIKSLSR probe by mass-spectrometric analysis relative to control.
The target of test [2] is Tyrosine-protein kinase Fer (Homo sapiens) (UniProt P16591). Description: Inhibition of FER in human SKCO1 cells at 1 uM after 4 hrs using biotin labeled TSVAVKTCKEDLPQELK probe by mass-spectrometric analysis relative to control.
For test [3], the target named is Probable ATP-dependent RNA helicase DDX6 (Homo sapiens) (UniProt P26196). As to the kind of experiment: Binding affinity to DDX6 in human NCI-H23 cells at 1 uM by mass spectrometry based pull down assay.
Test [4] has as its target Filamin-B (Homo sapiens) (UniProt O75369). Description: Binding affinity to FLNB in human NCI-H358 cells at 1 uM by mass spectrometry based pull down assay.
In test [5] the target is Bifunctional glutamate/proline--tRNA ligase (Homo sapiens) (UniProt P07814). Description: Binding affinity to EPRS in human NCI-H358 cells at 1 uM by mass spectrometry based pull down assay.
Test [6] addresses tRNA (guanosine(18)-2'-O)-methyltransferase TARBP1 (Homo sapiens) (UniProt Q13395). Description: Binding affinity to TARBP1 in human NCI-H358 cells at 1 uM by mass spectrometry based pull down assay.
In test [7] the target is Isoleucine--tRNA ligase, cytoplasmic (Homo sapiens) (UniProt P41252). As to the kind of experiment: Binding affinity to IARS in human NCI-H358 cells at 1 uM by mass spectrometry based pull down assay.
In test [8] the target is Ubiquitin carboxyl-terminal hydrolase 5 (Homo sapiens) (UniProt P45974). Description: Binding affinity to USP5 in human NCI-H23 cells at 1 uM by mass spectrometry based pull down assay.
Test [9] concerns the target Trafficking protein particle complex subunit 5 (Homo sapiens) (UniProt Q8IUR0). As to the kind of experiment: Binding affinity to TRAPPC5 in human NCI-H358 cells at 1 uM by mass spectrometry based pull down assay.
For test [10], the target named is T1, Dual specificity mitogen-activated protein kinase kinase 4 (Homo sapiens) (UniProt P45985).
T1 sequence (whole entry): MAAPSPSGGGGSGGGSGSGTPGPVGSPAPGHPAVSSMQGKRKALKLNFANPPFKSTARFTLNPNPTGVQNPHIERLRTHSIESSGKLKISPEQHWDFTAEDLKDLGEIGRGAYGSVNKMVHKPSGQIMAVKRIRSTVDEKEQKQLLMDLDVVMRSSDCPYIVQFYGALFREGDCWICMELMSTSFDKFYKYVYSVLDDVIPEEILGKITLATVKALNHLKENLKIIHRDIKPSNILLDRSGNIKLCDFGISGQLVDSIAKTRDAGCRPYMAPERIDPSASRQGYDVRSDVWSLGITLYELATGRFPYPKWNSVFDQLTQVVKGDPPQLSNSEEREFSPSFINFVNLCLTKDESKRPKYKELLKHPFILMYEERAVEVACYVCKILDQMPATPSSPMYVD
Description: Binding affinity to MAP2K4 in human NCI-H358 cells at 1 uM by mass spectrometry based pull down assay.

For test [11], the target named is Citrate synthase, mitochondrial (Homo sapiens) (UniProt O75390). Description: Binding affinity to CS in human NCI-H358 cells at 1 uM by mass spectrometry based pull down assay.
The target in test [12] is Bifunctional 3'-phosphoadenosine 5'-phosphosulfate synthase 2 (Homo sapiens) (UniProt O95340). Description: Binding affinity to PAPSS2 in human NCI-H23 cells at 1 uM by mass spectrometry based pull down assay.
Test [13] concerns the target Glycogen phosphorylase, brain form (Homo sapiens) (UniProt P11216). Description: Binding affinity to PYGB in human NCI-H358 cells at 1 uM by mass spectrometry based pull down assay.
Test [14] deals with DnaJ homolog subfamily A member 1 (Homo sapiens) (UniProt P31689). Description: Binding affinity to DNAJA1 in human NCI-H358 cells at 1 uM by mass spectrometry based pull down assay.
Test [15] concerns the target Gelsolin (Homo sapiens) (UniProt P06396). Description: Binding affinity to GSN in human NCI-H358 cells at 1 uM by mass spectrometry based pull down assay.
Test [16] addresses Catenin alpha-1 (Homo sapiens) (UniProt P35221). As to the kind of experiment: Binding affinity to CTNNA1 in human NCI-H358 cells at 1 uM by mass spectrometry based pull down assay.
In test [17] the target is Leucine-rich PPR motif-containing protein, mitochondrial (Homo sapiens) (UniProt P42704). As to the kind of experiment: Binding affinity to LRPPRC in human NCI-H358 cells at 1 uM by mass spectrometry based pull down assay.
Test [18] addresses Ribosomal protein S6 kinase alpha-1 (Homo sapiens) (UniProt Q15418). As to the kind of experiment: Binding affinity to RPS6KA1 in human NCI-H358 cells at 1 uM by mass spectrometry based pull down assay.
The target of test [19] is Arginine--tRNA ligase, cytoplasmic (Homo sapiens) (UniProt P54136). As to the kind of experiment: Binding affinity to RARS in human NCI-H358 cells at 1 uM by mass spectrometry based pull down assay.
In test [20] the target is Far upstream element-binding protein 1 (Homo sapiens) (UniProt Q96AE4). Description: Binding affinity to FUBP1 in human NCI-H23 cells at 1 uM by mass spectrometry based pull down assay.
Test [21] addresses DNA replication licensing factor MCM6 (Homo sapiens) (UniProt Q14566). Description: Binding affinity to MCM6 in human NCI-H358 cells at 1 uM by mass spectrometry based pull down assay.
Test [22] concerns the target Interleukin enhancer-binding factor 2 (Homo sapiens) (UniProt Q12905). As to the kind of experiment: Binding affinity to ILF2 in human NCI-H23 cells at 1 uM by mass spectrometry based pull down assay.
In test [23] the target is 80S Ribosome (Homo sapiens) (UniProt P08865+P42677+P62753+P15880+P23396+P61247+P62701+P22090+P46782+P62081+P62241+P46781+P46783+P62280+P25398+P62277+P62263+P62841+P62244+P62249+P08708+P62269+P39019+P60866+P63220+P62266+P62847+P62851+P62854+P62979+P62857+P62273+P62861+P39023+P36578+P46777+Q02878+P18124+P62424+P62917+P32969+P27635+P62906+P62913+P30050+P26373+P40429+P50914+P61313+P18621+Q07020+Q02543+P84098+P46778+P35268+P62829+P62750+P83731+P61254+P61353+P46776+P46779+P47914+P62888+P62899+P62910+P49207+P42766+P18077+Q9Y3U8+P83881+P61927+P61513+P63173+P62891+P62945+P05388+P05386). Description: Binding affinity to RPS23 in human NCI-H358 cells at 1 uM by mass spectrometry based pull down assay.

Test [24] concerns the target Aurora kinase B (Homo sapiens) (UniProt Q96GD4). As to the kind of experiment: Binding affinity to AURKB in human NCI-H358 cells at 1 uM by mass spectrometry based pull down assay.

Chain of Catenin alpha-1 (Homo sapiens) (P35221 whole entry): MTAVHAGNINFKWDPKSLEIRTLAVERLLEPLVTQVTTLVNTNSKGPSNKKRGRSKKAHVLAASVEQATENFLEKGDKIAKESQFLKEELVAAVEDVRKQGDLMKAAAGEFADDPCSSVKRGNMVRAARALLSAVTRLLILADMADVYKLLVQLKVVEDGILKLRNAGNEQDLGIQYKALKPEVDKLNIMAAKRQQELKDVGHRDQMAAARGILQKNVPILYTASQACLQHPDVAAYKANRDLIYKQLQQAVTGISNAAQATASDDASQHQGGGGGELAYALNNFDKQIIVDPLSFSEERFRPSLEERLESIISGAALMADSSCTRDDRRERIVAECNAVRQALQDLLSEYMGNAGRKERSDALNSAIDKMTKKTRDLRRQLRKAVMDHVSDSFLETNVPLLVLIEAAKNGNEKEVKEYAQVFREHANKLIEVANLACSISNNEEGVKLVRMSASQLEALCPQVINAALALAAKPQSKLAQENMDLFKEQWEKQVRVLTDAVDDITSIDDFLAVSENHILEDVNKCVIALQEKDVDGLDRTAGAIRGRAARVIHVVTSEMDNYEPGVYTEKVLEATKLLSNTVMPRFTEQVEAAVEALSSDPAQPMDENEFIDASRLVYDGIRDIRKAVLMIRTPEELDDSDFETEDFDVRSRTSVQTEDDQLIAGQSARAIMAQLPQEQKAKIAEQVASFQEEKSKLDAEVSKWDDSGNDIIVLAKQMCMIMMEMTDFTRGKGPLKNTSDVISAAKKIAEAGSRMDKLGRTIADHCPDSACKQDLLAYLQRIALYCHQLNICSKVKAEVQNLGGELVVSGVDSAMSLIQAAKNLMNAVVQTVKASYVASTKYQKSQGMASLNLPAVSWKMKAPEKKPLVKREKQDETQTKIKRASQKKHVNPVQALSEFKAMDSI
Chain of Filamin-B (Homo sapiens) (O75369 whole entry): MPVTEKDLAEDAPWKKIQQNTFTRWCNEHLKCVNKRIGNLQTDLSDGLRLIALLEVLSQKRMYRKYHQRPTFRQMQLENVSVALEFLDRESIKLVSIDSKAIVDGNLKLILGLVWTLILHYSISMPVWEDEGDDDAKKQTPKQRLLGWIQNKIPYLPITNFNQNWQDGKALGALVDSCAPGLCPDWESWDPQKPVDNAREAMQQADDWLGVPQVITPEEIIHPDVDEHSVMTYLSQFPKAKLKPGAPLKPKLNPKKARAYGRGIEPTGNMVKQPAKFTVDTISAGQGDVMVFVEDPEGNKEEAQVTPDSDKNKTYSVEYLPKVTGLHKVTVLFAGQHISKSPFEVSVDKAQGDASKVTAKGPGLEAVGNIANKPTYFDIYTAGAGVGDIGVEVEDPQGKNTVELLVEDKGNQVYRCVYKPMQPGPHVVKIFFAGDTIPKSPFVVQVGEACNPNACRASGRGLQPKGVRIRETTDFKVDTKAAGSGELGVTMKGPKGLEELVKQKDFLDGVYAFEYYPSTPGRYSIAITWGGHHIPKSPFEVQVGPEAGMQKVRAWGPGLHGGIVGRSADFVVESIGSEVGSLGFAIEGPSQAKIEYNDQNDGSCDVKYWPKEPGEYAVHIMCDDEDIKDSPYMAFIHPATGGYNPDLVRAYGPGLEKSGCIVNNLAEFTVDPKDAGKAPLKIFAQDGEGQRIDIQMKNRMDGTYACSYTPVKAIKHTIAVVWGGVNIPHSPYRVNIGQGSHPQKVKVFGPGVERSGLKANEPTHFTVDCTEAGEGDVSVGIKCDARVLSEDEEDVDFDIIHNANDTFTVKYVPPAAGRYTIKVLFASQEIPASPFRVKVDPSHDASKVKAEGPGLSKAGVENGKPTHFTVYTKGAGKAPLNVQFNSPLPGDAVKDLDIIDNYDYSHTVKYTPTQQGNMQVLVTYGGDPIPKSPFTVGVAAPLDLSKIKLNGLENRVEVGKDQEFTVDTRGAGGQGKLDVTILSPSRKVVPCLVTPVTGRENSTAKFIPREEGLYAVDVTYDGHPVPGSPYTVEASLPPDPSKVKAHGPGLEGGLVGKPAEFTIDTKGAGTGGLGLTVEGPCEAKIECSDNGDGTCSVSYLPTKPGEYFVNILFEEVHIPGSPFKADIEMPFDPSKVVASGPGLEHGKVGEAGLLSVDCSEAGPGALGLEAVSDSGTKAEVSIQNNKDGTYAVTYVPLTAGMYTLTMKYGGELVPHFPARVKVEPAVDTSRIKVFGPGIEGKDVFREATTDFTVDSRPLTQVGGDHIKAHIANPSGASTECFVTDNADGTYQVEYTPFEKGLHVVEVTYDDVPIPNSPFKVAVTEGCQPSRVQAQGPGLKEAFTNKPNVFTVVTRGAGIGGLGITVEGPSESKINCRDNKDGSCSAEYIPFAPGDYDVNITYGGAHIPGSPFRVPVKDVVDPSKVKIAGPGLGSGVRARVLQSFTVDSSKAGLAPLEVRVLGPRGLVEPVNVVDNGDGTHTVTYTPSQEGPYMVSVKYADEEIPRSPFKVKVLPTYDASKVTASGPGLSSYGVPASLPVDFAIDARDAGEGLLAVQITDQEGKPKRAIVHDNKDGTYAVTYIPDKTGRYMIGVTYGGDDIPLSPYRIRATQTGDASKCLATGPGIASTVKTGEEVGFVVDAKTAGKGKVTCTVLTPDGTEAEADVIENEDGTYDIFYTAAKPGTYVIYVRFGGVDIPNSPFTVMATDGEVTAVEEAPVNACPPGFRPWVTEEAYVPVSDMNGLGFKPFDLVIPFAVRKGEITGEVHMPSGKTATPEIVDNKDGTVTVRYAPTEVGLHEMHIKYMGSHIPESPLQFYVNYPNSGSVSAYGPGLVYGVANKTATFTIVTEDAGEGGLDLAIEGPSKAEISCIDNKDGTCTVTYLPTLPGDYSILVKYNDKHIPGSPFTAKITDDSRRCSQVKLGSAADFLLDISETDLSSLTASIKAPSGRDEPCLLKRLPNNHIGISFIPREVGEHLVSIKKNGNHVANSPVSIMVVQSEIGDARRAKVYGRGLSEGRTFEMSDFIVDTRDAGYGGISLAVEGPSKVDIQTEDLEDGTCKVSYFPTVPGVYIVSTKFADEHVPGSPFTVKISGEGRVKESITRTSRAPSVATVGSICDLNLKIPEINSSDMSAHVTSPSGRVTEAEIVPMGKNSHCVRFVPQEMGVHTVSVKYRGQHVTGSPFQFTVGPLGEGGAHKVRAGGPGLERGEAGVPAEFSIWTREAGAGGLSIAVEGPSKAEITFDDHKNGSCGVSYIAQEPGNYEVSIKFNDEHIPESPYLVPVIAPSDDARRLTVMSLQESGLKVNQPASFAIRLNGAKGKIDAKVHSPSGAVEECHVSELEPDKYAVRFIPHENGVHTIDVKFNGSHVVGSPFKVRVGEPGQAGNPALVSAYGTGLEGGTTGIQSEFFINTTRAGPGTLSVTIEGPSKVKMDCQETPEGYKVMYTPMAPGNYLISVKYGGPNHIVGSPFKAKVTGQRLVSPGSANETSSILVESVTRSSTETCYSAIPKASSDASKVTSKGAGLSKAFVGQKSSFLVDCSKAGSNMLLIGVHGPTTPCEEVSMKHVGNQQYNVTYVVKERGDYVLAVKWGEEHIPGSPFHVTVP
Chain of Interleukin enhancer-binding factor 2 (Homo sapiens) (Q12905 whole entry): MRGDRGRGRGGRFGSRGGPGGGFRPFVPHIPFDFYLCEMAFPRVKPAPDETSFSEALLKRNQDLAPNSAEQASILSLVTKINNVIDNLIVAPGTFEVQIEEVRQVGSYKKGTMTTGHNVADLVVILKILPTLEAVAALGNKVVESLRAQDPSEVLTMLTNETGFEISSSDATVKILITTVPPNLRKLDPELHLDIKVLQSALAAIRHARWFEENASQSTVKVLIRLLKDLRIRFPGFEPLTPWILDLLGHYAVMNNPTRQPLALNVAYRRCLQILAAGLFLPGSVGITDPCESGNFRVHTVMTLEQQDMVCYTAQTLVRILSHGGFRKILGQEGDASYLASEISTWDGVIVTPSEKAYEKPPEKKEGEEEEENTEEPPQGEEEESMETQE
Chain of DNA replication licensing factor MCM6 (Homo sapiens) (Q14566 whole entry): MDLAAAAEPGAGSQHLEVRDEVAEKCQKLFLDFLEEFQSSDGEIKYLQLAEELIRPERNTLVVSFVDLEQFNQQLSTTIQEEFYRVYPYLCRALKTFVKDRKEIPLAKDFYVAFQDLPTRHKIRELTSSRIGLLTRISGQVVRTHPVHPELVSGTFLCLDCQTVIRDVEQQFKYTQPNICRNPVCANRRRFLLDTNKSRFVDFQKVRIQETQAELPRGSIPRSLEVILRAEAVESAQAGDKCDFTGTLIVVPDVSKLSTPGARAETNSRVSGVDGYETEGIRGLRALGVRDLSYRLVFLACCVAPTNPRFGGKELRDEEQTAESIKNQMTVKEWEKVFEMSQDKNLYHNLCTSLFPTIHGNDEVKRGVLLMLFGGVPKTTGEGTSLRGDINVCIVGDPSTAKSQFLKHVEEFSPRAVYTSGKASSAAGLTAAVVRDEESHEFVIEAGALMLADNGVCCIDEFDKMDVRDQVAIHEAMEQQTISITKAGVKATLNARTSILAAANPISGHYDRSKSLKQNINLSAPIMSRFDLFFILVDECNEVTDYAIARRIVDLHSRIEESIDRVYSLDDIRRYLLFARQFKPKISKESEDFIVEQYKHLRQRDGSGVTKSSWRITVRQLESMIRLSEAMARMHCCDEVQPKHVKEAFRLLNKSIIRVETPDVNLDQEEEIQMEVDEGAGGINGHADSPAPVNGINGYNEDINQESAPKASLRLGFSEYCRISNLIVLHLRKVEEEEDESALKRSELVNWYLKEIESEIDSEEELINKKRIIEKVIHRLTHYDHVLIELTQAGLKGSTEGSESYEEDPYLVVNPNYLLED
Chain of Aurora kinase B (Homo sapiens) (Q96GD4 whole entry): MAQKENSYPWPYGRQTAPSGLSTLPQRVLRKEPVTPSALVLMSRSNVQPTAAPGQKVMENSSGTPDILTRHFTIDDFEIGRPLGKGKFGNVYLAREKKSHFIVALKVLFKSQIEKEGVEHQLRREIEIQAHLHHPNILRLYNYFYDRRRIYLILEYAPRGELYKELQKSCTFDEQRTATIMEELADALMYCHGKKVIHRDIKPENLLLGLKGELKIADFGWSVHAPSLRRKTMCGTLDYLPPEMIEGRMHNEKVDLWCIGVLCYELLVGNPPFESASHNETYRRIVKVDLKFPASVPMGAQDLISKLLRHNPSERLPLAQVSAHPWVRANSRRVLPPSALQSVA

With `C=CC(=O)Nc1ccccc1Oc1nc(Nc2cnn(CCOC)c2)ncc1Cl`, the inhibition in [1] was -4.2%.
Consider `C=CC(=O)Nc1ccccc1Nc1nc(Nc2ccc(N3CCN(C)CC3)cc2)ncc1Cl`, for which, in test [2], the inhibition was -0.2%.
Take `C=CC(=O)Nc1ccccc1Nc1nc(Nc2ccc(N3CCN(CCOCCOCCOCCNC(=O)CCCC[C@@H]4SC[C@@H]5NC(=O)N[C@@H]54)CC3)cc2)ncc1Cl`: the outcome in test [3], in [4], in test [5], in test [6], in [7] and in test [8] was Active. Also, the result in [9], in [10], in test [11], in [12], in test [13] and in test [14] was Active. For the same molecule, the outcome in test [15], in [16], in test [17], in test [18], in test [19] and in [20] was Active. For the same molecule, the result in [21], in test [22], in [23] and in test [24] was Active.
